Data set [1] in a line: Rat pharmacokinetic evaluation test, oral administration. Conditions: male, SD rats, p.o. 5 mg/kg, plasma; for MRT inf: read-out: MRT0-∞. The class given is in vivo. On the procedure:
SD rats were used as test animals to study the pharmacokinetic behavior of the compounds of the present invention in the rat body (plasma) after oral administration at a dose of 5 mg/kg.
3 SD rats/group, male, from Shanghai Jiesijie Experimental Animal Co., Ltd., animal production license number (SCXK (Shanghai) 2013-0006 N0.311620400001794).
• 0.5% CMC-Na (1% Tween80) was dissolved with ultrasound, and formulated into a clear solution or homogeneous suspension.
• p.o. respectively after the rats were fasted overnight; • the p.o. dose was 5 mg/kg and the administration volume was 10 mL/kg.
After oral administration of rats, 0.2 mL of blood was collected from the jugular vein at 0.25 h, 0.5 h, 1.0 h, 2.0 h, and 4.0 h, placed in an EDTA-2K test tube, centrifuged at 6000 rpm for 6 min at 4° C. to separate plasma which was stored at −80° C.; the rats can eat 4 h after administration.
• 1) 160 μL of acetonitrile was added to 40 μL of plasma sample for precipitation, mixed and centrifuged at 3500×g for 5 to 20 min. • 2) the treated supernatant solution was taken and subjected to LC/MS/MS to analyze the concentrations of the test compounds. LC/MS/MS analysis instrument: AB Sciex API 4000 Qtrap.
• Liquid phase conditions: Shimadzu LC-20AD pump • chromatographic column: AgilentZORBAX XDB-C18 (50×2.1 mm, 3.5 μm) mobile phase: liquid A was 0.1% aqueous formic acid solution, liquid B was acetonitrile • flow rate: 0.4 mL/min • Elution time: 0-4.0 min, the eluent was as follows:
The main pharmacokinetic parameters were calculated using WinNonlin 6.1.

Data set [2] in a line: Liver microsomal metabolism stability test, dog. Type of data set: in vitro ADME. Conditions: for half-life at 1 μM: dog liver microsomes 0.5 mg/mL, compound 1 μM, NADPH/UDPGA; for Remaining rate: dog liver microsomes, 60 min. On the procedure:
The purpose of this experiment was to detect the stability of the example compounds in liver microsomes of rats, dogs and humans.
• Formulation of working solution of compounds: compound stock solution was added to phosphate buffer to a final concentration of 20 μM.
Dilution was performed with 100 mM phosphate buffer to a final concentration of 0.625 mg/mL.
NADPH (reduced nicotinamide adenine dinucleotide phosphate) and UDPGA (uridine diphosphate glucuronic acid) were weighed, 100 mM phosphate buffer was added, and the final concentration was 20 mM.
1 mg of Alamethicin was weighed, and 200 μL of DMSO was added to formulate a 5 mg/mL solution. Then dilution was performed with phosphate buffer to a final concentration of 50 μg/mL.
Stop solution: the stop solution contains 100 ng/mL labetalol hydrochloride and 400 ng/mL tolbutamide and cold acetonitrile as internal standard.
400 μL of formulated liver microsomes, 25 μL of compound working solution and 25 μL of Alamethicin were added in sequence to the 96-well plate, and pre-incubated at 37° C. for 10 min. Then 50 μL of formulated NADPH/UDPGA was added to start the reaction and the mixture was incubated at 37° C. The total volume of the reaction system was 500 μL. The final contents of each component are as follows:
• Instrument: Shimadzu LC-30 AD; • Chromatographic column: XBridge® C18 (50*4.6 mm, 5 μm particle size); • Mobile phase: A: 0.1% formic acid solution, B: methanol Wash gradient: 0.2-1.6 min 5% A to 95% A, 3.0-3.1 min 95% A to 5% A Run time: 4.0 min.
• Instrument: API5500 liquid chromatography mass spectrometer, AB Sciex; • Ion source: electrospray ionization source (ESI); • Drying gas: N2, temperature 500° C.; • Electrospray voltage: 5000 V; • Detection mode: positive ion detection; • Scanning mode: reaction monitoring (MRM) mode.
For orientation: Liver microsomes are a subcellular fraction often used to study metabolism.

Data set [3] deals with T1, CYP450 enzyme subtype 1A2 (Homo sapiens, UniProt P05177).
T1 construct: Human liver microsome incubation system was used; from tissue; host or cells: human liver microsomes
T1 sequence (P05177 1-516): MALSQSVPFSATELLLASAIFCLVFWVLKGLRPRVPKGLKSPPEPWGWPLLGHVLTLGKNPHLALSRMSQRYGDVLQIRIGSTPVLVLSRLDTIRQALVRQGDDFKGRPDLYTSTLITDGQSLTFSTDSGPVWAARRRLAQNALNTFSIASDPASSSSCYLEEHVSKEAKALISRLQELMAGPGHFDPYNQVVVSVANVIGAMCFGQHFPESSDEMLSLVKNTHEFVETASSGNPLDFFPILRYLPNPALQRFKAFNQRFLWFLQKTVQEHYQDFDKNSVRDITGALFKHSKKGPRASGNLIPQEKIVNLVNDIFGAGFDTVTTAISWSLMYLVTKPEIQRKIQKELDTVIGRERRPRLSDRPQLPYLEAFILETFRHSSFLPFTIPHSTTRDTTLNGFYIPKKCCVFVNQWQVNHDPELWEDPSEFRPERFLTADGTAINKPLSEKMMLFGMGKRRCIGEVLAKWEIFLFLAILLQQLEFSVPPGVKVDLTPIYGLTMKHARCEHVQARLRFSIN
As to the kind of experiment: CYP enzyme single point inhibition test, 1A2. Type of data set: in vitro ADME. Particulars: human liver microsomes, single point method. On the procedure: (§1) Human liver microsome incubation system was used, and the single point method was used to quickly predict the inhibition on CYP450 enzyme subtypes (1A2, 2C19, 2D6, 3A4-M, and 3A4-T) by compounds.
(§2) For 2.5 mM NADPH, 4.165 mg of NADPH (reduced nicotinamide adenine dinucleotide phosphate) was weighed and 100 mM phosphate buffer was added to 2 mL. For 0.25 mg/mL microsomes, 50 μL of 20 mg/mL microsomes was added to 4 mL of 100 mM phosphate buffer and mixed evenly.
(§3) The test example compound was weighed, diluted to 10 mM with DMSO, and then diluted to 100 μM with 100 mM phosphate buffer.
(§4) • 1. 40 μL of liver microsomes, 10 μL of substrate, and 10 μL of test compound were added in a 96-well plate and the mixture was pre-incubated for 3 min. • 2. 40 μL of NADPH was added. • 3. At 20 min, 300 μL of acetonitrile stop solution containing internal standard was added. • 4. The mixture was centrifuged and the sample was loaded.

Data set [4] concerns the target T2, CYP450 enzyme subtype 3A4-T (Homo sapiens, UniProt P08684).
T2 construct: Human liver microsome incubation system was used; from tissue; host or cells: human liver microsomes
The experiment in a line: CYP enzyme single point inhibition test, 3A4-T. The class given is in vitro ADME. Particulars: human liver microsomes, single point method. How it is done:
as §1, §2, §3, §4

Molecules are shown by their SMILES.

One may read the AUC(0-inf) as total exposure, with the tail of the curve extrapolated. The low end stands for less exposure, the high end for more exposure. The term Cmax denotes the maximum level reached in the sampled fluid or tissue. A word on the Tmax: it is the time from dosing to the highest level. One may read the half-life as how long it takes for the measured level to halve. Low readings indicate fast loss, high ones slow loss. A word on the IC50: it is the point on the concentration scale where inhibition reaches its midpoint. Higher therefore signals lower potency.

T2 sequence (P08684 whole entry): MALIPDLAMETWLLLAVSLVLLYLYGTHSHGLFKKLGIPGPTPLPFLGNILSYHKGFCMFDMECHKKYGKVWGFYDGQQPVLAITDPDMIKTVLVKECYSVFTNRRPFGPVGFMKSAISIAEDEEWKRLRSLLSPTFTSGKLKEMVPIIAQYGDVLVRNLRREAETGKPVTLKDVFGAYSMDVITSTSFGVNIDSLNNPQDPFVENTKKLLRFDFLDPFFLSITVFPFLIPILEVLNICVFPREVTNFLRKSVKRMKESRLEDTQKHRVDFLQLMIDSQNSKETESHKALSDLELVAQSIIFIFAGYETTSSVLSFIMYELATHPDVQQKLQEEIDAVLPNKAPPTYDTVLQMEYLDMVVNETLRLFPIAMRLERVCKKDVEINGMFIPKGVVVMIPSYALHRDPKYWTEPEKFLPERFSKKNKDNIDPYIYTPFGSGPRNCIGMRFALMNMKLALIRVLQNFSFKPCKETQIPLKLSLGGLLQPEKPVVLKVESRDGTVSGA

On to `CCCCC1=NC2(CCCC2)C(=O)N1Cc1ccc(-c2ccccc2S(=O)(=O)Nc2noc(C)c2Br)c(COCC)c1` [Example 46, 2-[4-[(2-butyl-4-oxo-1,3-diazaspiro[4.4]non-1-en-3-yl)methyl]-2-(ethoxymethyl)phenyl]-N-(4-bromo-5-methyl-isoxazol-3-yl)benzsulfamide], for which, in data set [1], the AUC(0-inf) is 13800 ng·h/mL, the Cmax came to 2300 ng/mL, the Tmax is 30 min and the MRT inf stood at 396 min. For the same compound, in data set [2], the half-life at 1 μM worked out at 22.2 min and the Remaining rate was 15.4%. This compound also yielded an IC50 in data set [3] of over 100 µM. In addition, in data set [4], the IC50 is over 100 µM.
In data set [2], `[2H]C([2H])(OCC)c1cc(CN2C(=O)C3(CCCC3)N=C2CCCC)ccc1-c1ccccc1S(=O)(=O)Nc1noc(C)c1Cl` [Example 49, 4′-((2-butyl-4-oxo-1,3-diazospiro[4.4]non-1-en-3-yl)methyl)-N-(4-chloro-5-methylisoxazol-3-yl)-2′-(ethoxydeuteriummethyl)-[1,1′-biphenyl]-2-sulfonamide] returned a half-life at 1 μM of 29.5 min and a Remaining rate of 23.9%.
With `CCCCC1=NC2(CC3CC3C2)C(=O)N1Cc1ccc(-c2ccccc2S(=O)(=O)Nc2noc(C)c2C)c(COCC)c1` (centres unmarked) [Example 87, 4′-((2′-butyl-5′-oxaspiro[bicyclo[3.1.0]hexane-3,4′-imidazole]-1′(5′H)-yl)methyl)-N-(4,5-dimethylisoxazol-3-yl)-2′-(ethoxymethyl)-[1,1′-biphenyl]-2-sulfonamide], in data set [1], the AUC(0-inf) came out at 9760 ng·h/mL, the maximum concentration (Cmax) came to 2630 ng/mL, the Tmax came out at 30 min and the MRT inf stood at 228 min.

These data come from patent US20240368123A1, “AROMATIC RING-CONTAINING BIOLOGICAL ANTAGONIST, AND PREPARATION METHOD THEREFOR AND USE THEREOF” (SHANGHAI HANSOH BIOMEDICAL CO., LTD., priority 2021, published 2024).
